Where two headings read alike, the source gives them in different places.
What was measured:
[1] = test system: i.p. implanted L-1210 leukemia; test: Antitumor activity against i.p. implanted L-1210 leukemia in mice; assay type: in vivo; details: for response vs control in vivo at 25 mg/kg / response vs control in vivo at 50 mg/kg / response vs control in vivo at 100 mg/kg: Mus musculus, L1210, ip; for response vs control in vivo at 50 mg/kg: read-out: Percent T/C (mean survival days treated/control × 100), 50 mg/kg/day × 5 i.p.; for response vs control in vivo at 100 mg/kg: read-out: Percent T/C (mean survival days treated/control × 100), 100 mg/kg/day × 5 i.p.
Description: The ascites cell form of L-1210 leukemia, grown in C3 D2 F1 /J female mice (supplied by Jackson Labs) were employed. The assay was performed according to National Cancer Institute (NCI) protocol 1.100 described by R. I. Gerau et al., Cancer Chemother. Rep. (Part 3) 3: (2): 7, 47 (1972) with a slight modification. Intraperitoneal implantation of 1×10^6 cells in 0.5-ml suspension to the control and the treated groups (each group comprised 8 C3 D2 F1 /J female mice, average wt 20 g) was carried out using donor mice (DBA/2Ha, supplied by Roswell Park Memorial Institute) bearing 3 day tumor growths. Compounds were dissolved in 0.9 percent NaCl and a 0.5 ml dose was administered intraperitoneally once daily. Treatment began 24 h after implantation and continued for 5 consecutive days. Control animals received a 0.5 ml injection of saline. Testing was followed as described in the NCI protocol and evaluated by recording the survival time according to the formula appearing in protocol 11.

[2] = test system: mouse leukemia L-1210 cells; test: Antiproliferative activity in vitro, viability of L-1210 cells in culture; assay type: cell-based; details: for IC50: read-out: Concentration (μM) for 50 percent loss of viability at 72 hours (ED50)
Description: The antiproliferative activity of the conjugates, ara-C, ara-CMP and the steroids was determined by measuring their effects against mouse leukemia L-1210 cells in culture. The assay was performed in test tubes without agitation according to the procedure described by Hong et al. in J. Med. Chem. 16: 139 (1973). After 24, 48 and 72 h, viable cell counts were performed on the cultures which had been incubated with compounds in various concentrations and the concentration of each compound required to produce a 50 percent inhibition of growth (ED50) after 72 h was determined by interpolation using the method described by Tritsch et al. in Cancer Biochem. Biophys. 2: 87 (1977).

[3] = test system: intracerebrally implanted L-1210; test: Antitumor activity against intracerebrally (i.c.) implanted L-1210 in mice; assay type: in vivo; details: for Survivors on day 35: groups of 8 mice; for Percent T/C: values as of 35th day
Description: Effects of the conjugate on i.c. implanted L-1210 in mice were also studied. A mouse (C3 D2 F1 /J, female, avg. wt. 20 g) was anesthesized with diethyl ether, the right parietal scalp was washed with 70 percent ethanol, a 27 G 1/2 needle with a guard placed on the outside of the barrel 1.5 mm from the top of the bevel, was inserted through the skull and 1×10^5 cells in 0.05 ml suspension were inoculated into the mouse. The conjugate in 0.9 percent NaCl (0.5 ml) was administered intraperitoneally once daily. Treatment began 24 h after implantation and continued for 5 consecutive days. Control animals received a 0.5 ml injection of saline. Testing was followed as described in the NCI protocol and evaluated by recording the survival time according to the formula appearing in protocol 11.

[4] = test system: i.p. implanted L1210 leukemia; test: Comparison of conjugates and ara-C plus steroid combinations, i.p. implanted L1210 leukemic mice; assay type: in vivo
Description: Each mouse received 1×10^6 cells intraperitoneally. Doses were administered i.p. once daily to groups of 8 mice (avg. wt. 20 g) for 5 consecutive days beginning 24 hours after tumor implantation. In case of the combination, ara-C and the steroid were given at the same molar concentrations present in the conjugates. Mean survival days were calculated by the equation appearing in the NCI protocol; T/C ratios are reported in percent, i.e (treated/control)×100.

[5] = read-out: Percent T/C (mean survival days treated/control × 100), 25 mg/kg/day × 5 i.p.

Nc1ccn([C@@H]2O[C@H](CO)[C@@H](O)[C@@H]2O)c(=O)n1 [Ara-C, 1-β-D-Arabinofuranosylcytosine, reference compound]
Mean Survival Days, Treated ([1]; 25 mg/kg/day × 5 i.p.): 11.00 days
Mean Survival Days, Treated ([1]; 50 mg/kg/day × 5 i.p.): 9.63 days
Percent T/C (mean survival days treated/control × 100) ([1]; 50 mg/kg/day × 5 i.p.): 110%
response vs control in vivo at 25 mg/kg [1, 5]: 128%
response vs control in vivo at 50 mg/kg [1]: 110%
IC50 ([2]; Mus musculus, L1210, 72 h): 0.1 µM
Mean Survival Days ([3]; 25 mg (102.8 μmol)/kg/day × 5 i.p.): 13.75 days
Survivors on day 35 ([3]; 25 mg/kg/day × 5 i.p.): 0
Percent T/C ([3]; 25 mg/kg/day × 5 i.p.): 152.8%
Percent T/C ([3]; 25 mg/kg/day × 5 i.p., listed as ara-C): 153%
weight lost by day 14 ([3]; ara-C treated mice): about 5 g
deaths of treated mice ([3]; ara-C treated mice, by day 14): all but one of them died

Nc1ccn([C@@H]2O[C@H](COP(=O)(O)O)[C@@H](O)[C@@H]2O)c(=O)n1 [Ara-CMP, reference compound]
Mean Survival Days, Treated ([1]; 50 mg/kg/day × 5 i.p.): 9.13 days
Mean Survival Days, Treated ([1]; 100 mg/kg/day × 5 i.p.): 11.00 days
response vs control in vivo at 50 mg/kg [1]: 104%
response vs control in vivo at 100 mg/kg [1]: 122%
IC50 ([2]; Mus musculus, L1210, 72 h): 0.05 µM

C[C@]12C[C@H](O)[C@H]3[C@@H](CCC4=CC(=O)CC[C@@]43C)[C@@H]1CC[C@@H]2C(=O)COP(=O)(O)OC[C@H]1O[C@@H](n2ccc(N)nc2=O)[C@@H](O)[C@@H]1O [Corticosterone-p-ara-C]
Survival Days Mean (Treated) ([4]; 77.0 μmole/kg/day × 5): 26.50 days
Weight change on Day 8 (g/mouse) ([4]; 77.0 μmole/kg/day × 5): -0.71 g/mouse
response vs control in vivo at 77 µmol/kg ([4]; Mus musculus, L1210, ip, 77.0 μmole/kg/day × 5, read-out: % T/C): 342%

C[C@]12CCC(=O)C=C1CC[C@@H]1[C@@H]2[C@@H](O)C[C@@]2(C)[C@H]1CC[C@]2(O)C(=O)COP(=O)(O)OC[C@H]1O[C@@H](n2ccc(N)nc2=O)[C@@H](O)[C@@H]1O [Cortisol-p-ara-C (V), 5'-(Cortisol-21-phosphoryl)-1-β-D-arabinofuranosylcytosine]
Mean Survival Days, Treated ([1]; 50 mg/kg/day × 5 i.p.): 24.75 days
Mean Survival Days, Treated ([1]; 100 mg/kg/day × 5 i.p.): 14.25 days
response vs control in vivo at 50 mg/kg [1]: 287%
response vs control in vivo at 100 mg/kg [1]: 154%
Survival Days Mean (Treated) ([4]; 75.0 μmole/kg/day × 5): 24.75 days
Weight change on Day 8 (g/mouse) ([4]; 75.0 μmole/kg/day × 5 (each, for combinations)): +0.09 g/mouse
response vs control in vivo at 75 µmol/kg ([4]; Mus musculus, L1210, ip, 75.0 μmole/kg/day × 5, read-out: % T/C): 287%
antiproliferative activity compared with ara-CMP and ara-C ([2]; 72 h): less active than both ara-CMP and ara-C
IC50 ([2]; Mus musculus, L1210, 72 h): 0.25 µM
Mean Survival Days ([3]; 50 mg/kg/day × 5 i.p.): 20.50 days
body weight lost by day 11 ([3]; 50 mg/kg/day × 5 i.p.): about 4 g
weight gained over original weight (20 g) by day 20 ([3]; 50 mg/kg/day × 5 i.p.): about 1 g
Survivors on day 35 ([3]; 50 mg/kg/day × 5 i.p.): 2
Percent T/C ([3]; 50 mg/kg/day × 5 i.p.): 227.8%
Percent T/C ([3]; 50 mg/kg/day × 5 i.p., listed as V): 228%

C[C@]12CCC(=O)C=C1CC[C@@H]1[C@@H]2C(=O)C[C@@]2(C)[C@H]1CC[C@]2(O)C(=O)COP(=O)(O)OC[C@H]1O[C@@H](n2ccc(N)nc2=O)[C@@H](O)[C@@H]1O [Cortisone-p-ara-C (VI), 5'-(Cortisone-21-phosphoryl)-1-β-D-arabinofuranosylcytosine]
Mean Survival Days, Treated ([1]; 50 mg/kg/day × 5 i.p.): 20.14 days
response vs control in vivo at 50 mg/kg [1]: 224%
Survival Days Mean (Treated) ([4]; 75.1 μmole/kg/day × 5): 21.43 days
Weight change on Day 8 (g/mouse) ([4]; 75.1 μmole/kg/day × 5): -0.07 g/mouse
response vs control in vivo at 75.1 µmol/kg ([4]; Mus musculus, L1210, ip, 75.1 μmole/kg/day × 5, read-out: % T/C): 238%
antiproliferative activity compared with ara-CMP and ara-C ([2]; 72 h): activity comparable to ara-CMP
IC50 ([2]; Mus musculus, L1210, 72 h): 0.07 µM

C[C@]12CC[C@H]3[C@@H](CCC4=CC(=O)CC[C@@]43C)[C@@H]1CC[C@@H]2C(=O)COP(=O)(O)OC[C@H]1O[C@@H](n2ccc(N)nc2=O)[C@@H](O)[C@@H]1O [DOC-p-ara-C]
Survival Days Mean (Treated) ([4]; 78.7 μmole/kg/day × 5): 21.38 days
Weight change on Day 8 (g/mouse) ([4]; 78.7 μmole/kg/day × 5): -0.94 g/mouse
response vs control in vivo at 78.7 µmol/kg ([4]; Mus musculus, L1210, ip, 78.7 μmole/kg/day × 5, read-out: % T/C): 238%

C[C@@H]1C[C@H]2[C@@H]3CCC4=CC(=O)C=C[C@]4(C)[C@@]3(F)[C@@H](O)C[C@]2(C)[C@@]1(O)C(=O)COP(=O)(O)OC[C@H]1O[C@@H](n2ccc(N)nc2=O)[C@@H](O)[C@@H]1O [DXM-p-ara-C (III), 5'-(Dexamethasone-21-phosphoryl)-1-β-D-arabinofuranosylcytosine]
toxicity ([1]; 50 mg (71.7 μmol)/kg/day): showed some toxicity
Mean Survival Days, Treated ([1]; 50 mg/kg/day × 5 i.p.): 13.50 days
Percent T/C (mean survival days treated/control × 100) ([1]; 50 mg/kg/day × 5 i.p.): 150%
response vs control in vivo at 50 mg/kg [1]: 150%
Survival Days Mean (Treated) ([4]; 36.0 μmole/kg/day × 5): 11.50 days
Weight change on Day 8 (g/mouse) ([4]; 36.0 μmole/kg/day × 5): -1.03 g/mouse
Survival Days Mean (Treated) ([4]; 71.7 μmole/kg/day × 5): 13.50 days
Weight change on Day 8 (g/mouse) ([4]; 71.7 μmole/kg/day × 5): -1.50 g/mouse
response vs control in vivo at 36 µmol/kg ([4]; Mus musculus, L1210, ip, 36.0 μmole/kg/day × 5, read-out: % T/C): 128%
response vs control in vivo at 71.7 µmol/kg ([4]; Mus musculus, L1210, ip, 71.7 μmole/kg/day × 5, read-out: % T/C): 150%
antiproliferative activity compared with ara-CMP and ara-C ([2]; 72 h): activity comparable to ara-CMP
IC50 ([2]; Mus musculus, L1210, 72 h): 0.08 µM

CC12CCC(=O)C=C1CCC1C3CCC(O)(C(=O)COP(=O)(O)OCC4OC(n5ccc(N)nc5=O)C(O)C4O)C3(C)CC(O)C12F (centres unmarked) [Fludrocortisone-p-ara-C]
Survival Days Mean (Treated) ([4]; 36.46 μmole/kg/day × 5): 14.30 days
Weight change on Day 8 (g/mouse) ([4]; 36.46 μmole/kg/day × 5): -1.09 g/mouse
response vs control in vivo at 36.46 µmol/kg ([4]; Mus musculus, L1210, ip, 36.46 μmole/kg/day × 5, read-out: % T/C): 159%

C[C@H]1C[C@@H]2[C@H]([C@@H](O)C[C@@]3(C)[C@H]2CC[C@]3(O)C(=O)COP(=O)(O)OC[C@H]2O[C@H](n3ccc(N)nc3=O)[C@@H](O)[C@@H]2O)[C@@]2(C)C=CC(=O)C=C12 [MePred-p-ara-C (IV), 5'-(6α-Methylprednisolone-21-phosphoryl)-1-α-D-arabinofuranosylcytosine]
% T/C ([4]; 74.0 μmole/kg/day × 5): 246.8%
Survival Days Mean (Treated) ([4]; 74.0 μmole/kg/day × 5): 19.13 days
Survival Days Range ([4]; 74.0 μmole/kg/day × 5): 14 to 24 days
Weight change on Day 8 (g/mouse) ([4]; 74.0 μmole/kg/day × 5): -1.08 g/mouse
antiproliferative activity compared with ara-CMP and ara-C ([2]; 72 h): activity comparable to ara-CMP
IC50 ([2]; 72 h): 0.05 µM

C[C@]12C=CC(=O)C=C1CC[C@@H]1[C@@H]2[C@@H](O)C[C@@]2(C)[C@H]1CC[C@]2(O)C(=O)CO [Prednisolone, 11β,17α,21-trihydroxy-1,4-pregnadiene-3,20-dione, reference compound]
response vs control in vivo at 25 mg/kg [1, 5]: 133%

C[C@]12C=CC(=O)C=C1CC[C@@H]1[C@@H]2C(=O)C[C@@]2(C)[C@H]1CC[C@]2(O)C(=O)CO [prednisone, 17α,21-dihydroxy-1,4-pregnadiene-3,11,20-trione, reference compound]
response vs control in vivo at 25 mg/kg ([1]; 25 mg/kg/day × 5 i.p., read-out: Percent T/C (mean survival days treated/control × 100)): 133%
